Results on seven compounds are retold here after PubChem BioAssay AID1259411 (Chemical Carcinogenesis Research Information System (CCRIS), 2018).

For the series, the system named is rodent carcinogenicity bioassays, tumor incidence. As to the kind of experiment: CCRIS carcinogenicity studies. Particulars: Dose: 0, Dose: 0. The procedure, abridged:
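Archive of carcinogenicity, mutagenicity, tumor promotion and tumor inhibition results drawn from journals, NCI reports and other sources, expert-reviewed; covers 1985-2011 and is no longer updated.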

Each structure is given as a SMILES string. Active and inactive are the calls of the source. The rule behind the calls is not given here.

For `Cc1ccc(Cl)cc1N`, the carcinogen call (Species: MOUSE, Strain/Sex: B6C3F1/FEMALE, Route: ORAL, 2000, 4000 PPM IN DIET, 2000, 4000 PPM IN DIET, Tumor Site: Type of Lesion: BLOOD VESSELS: HEMANGIOSARCOMA, LIVER: HEPATOCELLULAR ADENOMA OR CARCINOMA) is “active; positive”; the carcinogen call (Species: MOUSE, Strain/Sex: B6C3F1/MALE, Route: ORAL, 2000, 4000 PPM IN DIET, 2000, 4000 PPM IN DIET, Tumor Site: Type of Lesion: BLOOD VESSELS: HEMANGIOSARCOMA, LIVER: HEPATOCELLULAR ADENOMA OR CARCINOMA) was “active; positive”; the carcinogen call (Species: RAT, Strain/Sex: F344/FEMALE, Route: ORAL, 2500, 5000 PPM IN DIET, 2500, 5000 PPM IN DIET) was “inactive; negative”; the carcinogen call (Species: RAT, Strain/Sex: F344/MALE, Route: ORAL, 2500, 5000 PPM IN DIET, 2500, 5000 PPM IN DIET) is “inactive; negative”.
Regarding `O=C(O)C1=NN(c2ccc(S(=O)(=O)O)cc2)C(=O)C1N=Nc1ccc(S(=O)(=O)O)cc1` (stereo unspecified), the carcinogen call (Species: MOUSE, Strain/Sex: ICR/FEMALE, Route: DERMAL, 1 MG IN 0.1 ML DISTILLED WATER 2/WK FOR A MEAN TOTAL DOSE OF 133.4 MG (STUDY DURATION: 18 MO)) is “inactive; negative”; the carcinogen call (Species: MOUSE, Strain/Sex: ICR/MALE, Route: DERMAL, 1 MG IN 0.1 ML DISTILLED WATER 2/WK FOR A MEAN TOTAL DOSE OF 133.4 MG (STUDY DURATION: 18 MO)) is “inactive; negative”; the carcinogen call (Species: RAT, Strain/Sex: F344/FEMALE, Route: ORAL, 1, 2% IN DRINKING WATER FOR 104 WK (STUDY DURATION: 112 WK), 1, 2% IN DRINKING WATER FOR 104 WK (STUDY DURATION: 112 WK)) was “inactive; negative”; the carcinogen call (Species: RAT, Strain/Sex: F344/MALE, Route: ORAL, 1, 2% IN DRINKING WATER FOR 104 WK (STUDY DURATION: 112 WK), 1, 2% IN DRINKING WATER FOR 104 WK (STUDY DURATION: 112 WK)) is “inactive; negative”.
With `Clc1nc(Cl)nc(Nc2ccccc2Cl)n1`, the carcinogen call is “inactive; negative” (Species: MOUSE, Strain/Sex: B6C3F1/FEMALE, Route: ORAL, 500, 1000 PPM IN DIET, 500, 1000 PPM IN DIET); “inactive; negative” (Species: MOUSE, Strain/Sex: B6C3F1/MALE, Route: ORAL, 500, 1000 PPM IN DIET, 500, 1000 PPM IN DIET); “inactive; negative; purity 93.5%” (Species: Mouse, Strain/Sex: CD-1/Female, Route: Oral, 50, 250, 1250 ppm in feed for 2 yrs, 50, 250, 1250 ppm in feed for 2 yrs); “inactive; negative; purity 93.5%” (Species: Mouse, Strain/Sex: CD-1/Male, Route: Oral, 50, 250, 1250 ppm in feed for 2 yrs, 50, 250, 1250 ppm in feed for 2 yrs); “inactive; negative” (Species: RAT, Strain/Sex: F344/FEMALE, Route: ORAL, 500, 1000 PPM IN DIET, 500, 1000 PPM IN DIET); “inactive; negative” (Species: RAT, Strain/Sex: F344/MALE, Route: ORAL, 500, 1000 PPM IN DIET, 500, 1000 PPM IN DIET). Also, the carcinogen call by setting is: (Species: Rat, Strain/Sex: Sprague Dawley/Female, Route: Oral, 50, 330, 2000 ppm in feed for 104 wks, 50, 330, 2000 ppm in feed for 104 wks) “inactive; negative; purity 93.5%”; (Species: Rat, Strain/Sex: Sprague Dawley/Male, Route: Oral, 50, 330, 2000 ppm in feed for 104 wks, 50, 330, 2000 ppm in feed for 104 wks) “inactive; negative; purity 93.5%”.
Take `[O-][Cl+2]([O-])O`: the carcinogen call (Species: MOUSE, Strain/Sex: B6C3F1/FEMALE (50, 50, 50, 50), Route: DRINKING WATER, 500, 1000, 2000 MG/L FOR 105 WKS (STUDY DURATION: 105 WKS), 500, 1000, 2000 MG/L FOR 105 WKS (STUDY DURATION: 105 WKS), Tumor Site: Type of Lesion: PANCREAS: ADENOMA OR CARCINOMA) is given as “equivocal”; the carcinogen call (Species: MOUSE, Strain/Sex: B6C3F1/MALE (50, 50, 50, 50), Route: DRINKING WATER, 500, 1000, 2000 MG/L FOR 105 WKS (STUDY DURATION: 105 WKS), 500, 1000, 2000 MG/L FOR 105 WKS (STUDY DURATION: 105 WKS)) is “inactive; negative”; the carcinogen call (Species: RAT, Strain/Sex: F344/N/FEMALE (50, 50, 50, 50), Route: DRINKING WATER, 125, 1000, 2000 MG/L FOR 105 WK (STUDY DURATION: 105 WKS), 125, 1000, 2000 MG/L FOR 105 WK (STUDY DURATION: 105 WKS)) was “inactive; negative; ntp reports as some evidence for thyroid but p values are not statisti”; the carcinogen call (Species: RAT, Strain/Sex: F344/N/MALE (50, 50, 50, 50), Route: DRINKING WATER, 125, 1000, 2000 MG/L FOR 105 WK (STUDY DURATION: 105 WKS), 125, 1000, 2000 MG/L FOR 105 WK (STUDY DURATION: 105 WKS), Tumor Site: Type of Lesion: THYROID: FOLLICULAR CELL ADENOMA OR CARCINOMA) is “active; positive (p = 0.052); ntp reports as some evidence”.
For `CC(=O)CNCC(O)C(O)N=O` (stereo unspecified), the carcinogen call (Species: RAT, Strain/Sex: F344/FEMALE, Route: ORAL, 15, 60 MG/L DRINKING WATER 5 D/WK FOR 31, 24 WK (TOTAL DOSE 47; 144 MG) (STUDY DURATION: LIFESPAN), 15, 60 MG/L DRINKING WATER 5 D/WK FOR 31, 24 WK (TOTAL DOSE 47; 144 MG) (STUDY DURATION: LIFESPAN), Tumor Site: Type of Lesion: ESOPHAGUS: CARCINOMA, PAPILLOMA, FORESTOMACH: CARCINOMA, PAPILLOMA, LUNG: TUMOR, TONGUE: CARCINOMA, PAPILLOMA, Tumor Site: Type of Lesion: ESOPHAGUS: CARCINOMA, PAPILLOMA, FORESTOMACH: CARCINOMA, PAPILLOMA, LUNG: TUMOR, TONGUE: CARCINOMA, PAPILLOMA) was “active; positive”.
For the compound `Nc1nc(N)nc(N)n1`, the carcinogen call (Species: MOUSE, Strain/Sex: B6C3F1/FEMALE, Route: ORAL, 2250, 4500 PPM IN DIET FOR 103 WK, 2250, 4500 PPM IN DIET FOR 103 WK) is “inactive; negative”; the carcinogen call (Species: MOUSE, Strain/Sex: B6C3F1/MALE, Route: ORAL, 2250, 4500 PPM IN DIET FOR 103 WK, 2250, 4500 PPM IN DIET FOR 103 WK) was “inactive; negative”; the carcinogen call (Species: RAT, Strain/Sex: F344/FEMALE, Route: ORAL, 4500, 9000 PPM IN DIET FOR 103 WK, 4500, 9000 PPM IN DIET FOR 103 WK) is “inactive; negative”; the carcinogen call (Species: RAT, Strain/Sex: F344/MALE, Route: ORAL, 0.3, 1, 3% IN DIET FOR 36 WK (STUDY DURATION: 40 WK), 0.3, 1, 3% IN DIET FOR 36 WK (STUDY DURATION: 40 WK), Tumor Site: Type of Lesion: BLADDER: PAPILLOMA, CARCINOMA) is “active; positive”; the carcinogen call (Species: RAT, Strain/Sex: F344/MALE, Route: ORAL, 1, 3% IN DIET CONTAINING 5% SODIUM CHLORIDE FOR 36 WK (STUDY DURATION: 40 WK), 1, 3% IN DIET CONTAINING 5% SODIUM CHLORIDE FOR 36 WK (STUDY DURATION: 40 WK), Tumor Site: Type of Lesion: URAINARY BLADDER: PAPILLOMA, CARCINOMA) is “active; positive”; the carcinogen call (Species: RAT, Strain/Sex: F344/MALE, Route: ORAL, 1, 3% IN DIET CONTAINING 10% SODIUM CHLORIDE FOR 36 WK (STUDY DURATION: 40 WK), 1, 3% IN DIET CONTAINING 10% SODIUM CHLORIDE FOR 36 WK (STUDY DURATION: 40 WK)) was “inactive; negative”. The carcinogen call runs as follows: (Species: RAT, Strain/Sex: F344/MALE, Route: ORAL, 1, 3% IN DIET FOR 36 WK (STUDY DURATION: 40 WK), 1, 3% IN DIET FOR 36 WK (STUDY DURATION: 40 WK), Tumor Site: Type of Lesion: URINARY BLADDER: PAPILLOMA, CARCINOMA) “active; positive”; (Species: RAT, Strain/Sex: F344/MALE, Route: ORAL, 2250, 4500 PPM IN DIET FOR 103 WK, 2250, 4500 PPM IN DIET FOR 103 WK, Tumor Site: Type of Lesion: URINARY BLADDER: TRANSITIONAL CELL PAPILLOMA OR CARCINOMA) “active; positive”.
With `CC(O)CNC(=O)N(CCCl)N=O` (stereo unspecified), the carcinogen call (Species: RAT, Strain/Sex: F344/FEMALE, Route: ORAL, 18 MG/L IN DRINKING WATER 5 D/WK FOR 30 WK (STUDY DURATION: LIFETIME)) was “inactive; negative” and the carcinogen call (Species: RAT, Strain/Sex: F344/MALE, Route: ORAL, 18 MG/L IN DRINKING WATER 5 D/WK FOR 30 WK (STUDY DURATION: LIFETIME), Tumor Site: Type of Lesion: LIVER: TUMOR, LUNG: TUMOR) was “active; positive”.
